Data on 12 molecules can be found in US20190307726A1, “PHARMACEUTICAL FORMULATIONS” (Molecular Defenses Corporation, priority 2015, published 2019).

One data set deals with T1, recombinant rat TrxR (Rattus norvegicus, UniProt O89049).
T1 sequence (O89049 1-499): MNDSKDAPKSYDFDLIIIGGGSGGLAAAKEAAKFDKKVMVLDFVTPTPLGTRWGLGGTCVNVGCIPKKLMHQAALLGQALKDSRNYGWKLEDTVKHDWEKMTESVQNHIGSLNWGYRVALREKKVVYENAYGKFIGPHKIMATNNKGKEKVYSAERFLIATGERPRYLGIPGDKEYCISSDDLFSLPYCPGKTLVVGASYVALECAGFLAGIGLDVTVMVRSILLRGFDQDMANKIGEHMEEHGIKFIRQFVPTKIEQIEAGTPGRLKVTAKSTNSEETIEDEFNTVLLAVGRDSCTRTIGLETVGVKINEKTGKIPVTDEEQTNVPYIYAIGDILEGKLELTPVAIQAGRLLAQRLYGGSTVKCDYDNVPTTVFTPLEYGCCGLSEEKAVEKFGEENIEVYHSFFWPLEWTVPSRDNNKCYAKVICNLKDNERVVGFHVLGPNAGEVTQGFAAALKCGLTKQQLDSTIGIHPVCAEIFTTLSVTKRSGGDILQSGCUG
Particulars: cited from earlier work.

A further data set relates to Staphylococcus aureus. Particulars: cited from earlier work.
The test system of a further data set is gshA- DHB4 E. coli. Particulars: cited from earlier work.
For a further data set, the system named is Gor- DHB4 E. coli. Particulars: cited from earlier work.
The next data set has as its target E. coli Trx (Escherichia coli, UniProt P0AA25). The data set can be described thus: Oxidation of reduced E. coli Trx-(SH)2, fluorescence spectroscopy. It is filed as biochemical.
The subject of data set [1] is MDR Mycobacterium tuberculosis. Nature of the data set: Sensitivity of Mycobacterium tuberculosis to ebselen, radiometric BACTEC 460 system. It is filed as cell-based. Particulars: medium with 5 g/l albumin; dependent upon albumin saturation.
A further data set has as its system wild type DHB4 E. coli. Particulars: cited from earlier work.
The next data set has as its system HEK 293T cells. The following applies: 24 h incubation, XTT; cited from earlier work. For orientation: Tetrazolium assays rely on reduction of a dye to a coloured formazan, in cell work by metabolically active cells.
For data set [2] the following is noted: 30 μM compound, 0.5 mM GSH, 0.5 mM H2O2, NADPH consumption; cited from earlier work.
Another data set has as its target E. coli TrxR (Escherichia coli, UniProt P0A9P4). Particulars: cited from earlier work.

Chain of E. coli TrxR (P0A9P4 2-321): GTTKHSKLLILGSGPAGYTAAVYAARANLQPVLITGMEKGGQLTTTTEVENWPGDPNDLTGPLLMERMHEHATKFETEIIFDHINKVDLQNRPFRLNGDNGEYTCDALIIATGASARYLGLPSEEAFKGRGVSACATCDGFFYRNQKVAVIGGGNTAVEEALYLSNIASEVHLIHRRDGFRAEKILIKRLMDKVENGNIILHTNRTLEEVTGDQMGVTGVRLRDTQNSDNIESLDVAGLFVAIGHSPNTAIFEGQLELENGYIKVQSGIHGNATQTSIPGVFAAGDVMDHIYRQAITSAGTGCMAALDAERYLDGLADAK
Chain of E. coli Trx (P0AA25 whole entry): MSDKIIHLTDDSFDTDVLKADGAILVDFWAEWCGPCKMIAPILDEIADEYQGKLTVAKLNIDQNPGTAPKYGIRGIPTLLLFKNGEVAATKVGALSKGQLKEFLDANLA

In the case of `CC(C)(C)n1[se]c2ccccc2c1=O` [EbSe 4], the “inhibition of mammalian TrxR (in words)” value on recombinant rat TrxR is reported as “some activity to inhibit mammalian TrxR”.
Turning to `O=c1c2ccccc2[se]n1-c1ccccc1` [EbSe 6, 2-phenyl-1,2-benzisoselenazol-3(2H)-one], the “difference in sensitivity, Staphyloccus aureus versus E. coli” value in the data set with Staphylococcus aureus is reported as 100 fold. Moreover, the “concentration inhibiting growth of methicillin resistant Staphylococcus aureus” value with Staphylococcus aureus (methicillin resistant Staphylococcus aureus) is 0.20 μg per ml. Besides, the “concentration inhibiting growth of Staphylococcus aureus 209P” value in the data set on Staphylococcus aureus (strain 209P) was 0.20 µg/mL. For the same molecule, the “MIC for gshA- DHB4 E. coli” value in the data set on gshA- DHB4 E. coli is 26 µM. The “MIC for Gor- DHB4 E. coli” value with Gor- DHB4 E. coli is 15 µM. In addition, the “second-order rate constant, reduction by reduced E. coli Trx” value at E. coli Trx stood at 2e+07 M⁻¹ s⁻¹. For the same molecule, the “MIC, Mycobacterium tuberculosis” value in data set [1] is “lower than 20 mg/I”. Further, the “MIC for wild type DHB4 E. coli” value in the data set on wild type DHB4 E. coli is 40 µM.
Consider `O=c1c2ccccc2[se]n1-c1ccc(Cl)cc1` [EbSe 7], for which the “MIC for gshA- DHB4 E. coli” value in the data set with gshA- DHB4 E. coli was 20 µM. Further, in the data set with Gor- DHB4 E. coli, the “MIC for Gor- DHB4 E. coli” value is 23 µM. Besides, the “MIC for wild type DHB4 E. coli” value in the data set with wild type DHB4 E. coli is 34 µM.
With `Cc1cc(Cl)ccc1-n1[se]c2ccccc2c1=O` [EbSe 8], the “MIC for gshA- DHB4 E. coli” value in the data set on gshA- DHB4 E. coli is 13 µM. The “MIC for Gor- DHB4 E. coli” value with Gor- DHB4 E. coli was 24 µM. Besides, the “MIC for wild type DHB4 E. coli” value in the data set on wild type DHB4 E. coli is 47 µM.
For the molecule `O=C(O)c1ccccc1-n1[se]c2ccccc2c1=O` [EbSe 9], the “MIC for gshA- DHB4 E. coli” value in the data set on gshA- DHB4 E. coli was 24 µM. Also, the “MIC for Gor- DHB4 E. coli” value with Gor- DHB4 E. coli was 31 µM. Besides, in the data set with wild type DHB4 E. coli, the “MIC for wild type DHB4 E. coli” value was 49 µM.
On to `O=c1c2ccccc2[se]n1-c1ccc(Cl)cn1` [EbSe 11], for which, in the data set on gshA- DHB4 E. coli, the “MIC for gshA- DHB4 E. coli” value is “No Inh”. For the same molecule, the IC50 in the data set with HEK 293T cells was above 160 µM; at E. coli TrxR (read-out: IC50 for E. coli TrxR, 100 nM TrxR, 2 μM Trx, 240 μM NADPH, 1 mM DTNB), above 40 µM. For the same molecule, in the data set with Gor- DHB4 E. coli, the “MIC for Gor- DHB4 E. coli” value is on record as “No Inh”. Besides, in data set [2], the “Relative GPx activity” value is 0.87. Further, the “MIC for wild type DHB4 E. coli” value in the data set on wild type DHB4 E. coli is “No Inh”. Further, on E. coli TrxR (read-out: Ki for E. coli TrxR, Dixon plot, 6 nM TrxR, Trx 1, 2 or 4 μM), the Ki was 0.3 µM.
`O=c1c2ccccc2[se]n1-c1ncccc1[N+](=O)[O-]` [EbSe 12]: the “MIC for gshA- DHB4 E. coli” value in the data set on gshA- DHB4 E. coli was “No Inh”. Also, the IC50 in the data set with HEK 293T cells is 80 µM. The “MIC for Gor- DHB4 E. coli” value with Gor- DHB4 E. coli is “No Inh”. Besides, in data set [2], the “Relative GPx activity” value is recorded as 0.93. In addition, in the data set on wild type DHB4 E. coli, the “MIC for wild type DHB4 E. coli” value is “No Inh”.
In the case of `O=c1c2ccccc2[se]n1-c1ccncc1` [EbSe 13], in the data set on gshA- DHB4 E. coli, the “MIC for gshA- DHB4 E. coli” value is 21 µM. Further, the “MIC for Gor- DHB4 E. coli” value with Gor- DHB4 E. coli is 24 µM. In the data set with wild type DHB4 E. coli, the “MIC for wild type DHB4 E. coli” value is 45 µM.
As to `O=c1c2ccccc2[se]n1CCn1[se]c2ccccc2c1=O` [EbSe 14], the “MIC for gshA- DHB4 E. coli” value in the data set with gshA- DHB4 E. coli was 23 µM. The “MIC for Gor- DHB4 E. coli” value in the data set with Gor- DHB4 E. coli is 19 µM. The “Relative GPx activity” value in data set [2] was “No activity”. Moreover, the “MIC for wild type DHB4 E. coli” value in the data set with wild type DHB4 E. coli is 23 µM.
Take `O=c1c2ccccc2[se]n1CCCCCCn1[se]c2ccccc2c1=O` [EbSe 16]: the “MIC for gshA- DHB4 E. coli” value in the data set on gshA- DHB4 E. coli is 20 µM. For the same molecule, in the data set on Gor- DHB4 E. coli, the “MIC for Gor- DHB4 E. coli” value is 35 µM. The “MIC for wild type DHB4 E. coli” value with wild type DHB4 E. coli is 20 µM.
For the molecule `CCOC(=O)c1cccnc1[Se]Nc1ccc(Cl)cn1` [compound 2], the “MIC for gshA- DHB4 E. coli” value in the data set on gshA- DHB4 E. coli was “No Inh”. Moreover, the “MIC for Gor- DHB4 E. coli” value in the data set with Gor- DHB4 E. coli was “No Inh”. For the same molecule, the “MIC for wild type DHB4 E. coli” value in the data set with wild type DHB4 E. coli is “No Inh”.
For the molecule `O=C(Nc1ccccc1)c1ccccc1[Se][Se]c1ccccc1C(=O)Nc1ccccc1` [ebselen diselenide], the “second-order rate constant, reduction by reduced E. coli Trx” value on E. coli Trx came to 1700 M⁻¹ s⁻¹.

One may read the IC50 as the midpoint of a concentration-inhibition curve. What is called Ki is the dissociation constant of the complex between target and ligand, obtained from inhibition or displacement.
